# Reference: EP2756852A1, “Heparin-lipidic nanoparticle conjugates” (Centre de Recerca en Salut Internacional de Barcelona, priority 2013, dated 2014)
# Entries after “also recorded” stand apart in the source; their conditions may differ.
# What was measured:
# healthy cells = test: Unspecific cytotoxicity assay (WST-1); format: cell-based; conditions: DOTAP concentration up to 200 µM; 24 or 48 h at 37°C; WST-1, absorbance at 440 nm
# Protocol: Cells were seeded in 96-well plates at a density of 5000 cells/100 µl/well, and incubated for 24 hours at 37°C in Medium 199 with Earle's Salts, supplemented with L-glutamine and FBS (PAA Laboratories GmbH). After that time the medium was carefully removed with a pipette and 90 µL of new medium (without FBS in this case) were added, followed by 10 µL of the sample to be analysed, which consisted of a solution of DOTAP 200 µM in PBS. It is advisable to prepare the sample dilutions in a 9:1 proportion (9 µl media:1 µl sample). After incubating for either 24 or 48 h at 37°C, 10 µL of WST-1 reagent were added, and after incubating for 1 h at 37°C absorbance at 440 nm was measured.
# P. falciparum 3D7 strain = test: Plasmodium falciparum growth inhibition assay (parasitemia by blood smear counting or FACS); format: cell-based; conditions: expressed with respect to non-treated pRBC, 48 h, liposomes 50 µM total lipid, primaquine 3 µM final in culture
# Protocol: For culture maintenance, parasitemias were kept below 5% late forms by dilution with washed RBCs.
# 150 µL of this Plasmodium culture was plated in 96-well plates and incubated in the presence of liposomes for 48 h in the conditions described above.
# Parasitemia was determined by microscopic counting of blood smears, or by fluorescence-assisted cell sorting (FACS). Smears were fixed in methanol for a few seconds and then stained for ten minutes with Giemsa (Merck Chemicals, Germany) diluted 1:10 in Sorenson's Buffer, pH 7.2. […] Samples were analyzed using an Epics XL flow cytometer (Coulter Corporation, Miami, Florida), set up with the standard configuration. Excitation of the sample was done using a standard 488 nm air-cooled argon-ion laser at 15 mW power. Forward scatter and side scatter were used to gate the RBC population. […] The single-cell population was selected on a forward-side scatter scattergram, and the fluorescence from this population was analyzed. Parasitemia was expressed as the number of parasitized cells per 100 erythrocytes.
# Parasitemia was determined by microscopic counting of blood smears, or by fluorescence-assisted cell sorting (FACS).
Compound,cytotoxicity (healthy cells),"parasitemia (P. falciparum 3D7 strain; Example 1, FIG. 2) [%]","parasitemia (P. falciparum 3D7 strain; Example 2, FIG. 3) [%]","parasitemia (P. falciparum 3D7 strain; Example 3, FIG. 4) [%]"
"CCCCCCCC/C=C\CCCCCCCC(=O)OCC(C[N+](C)(C)C)OC(=O)CCCCCCC/C=C\CCCCCCCC (stereo not shown) [DOTAP, 1,2-dioleoyl-3-trimethylammonium-propane]",not toxic; also recorded: not observed,,,
"COc1cc(NC(C)CCCN)c2ncccc2c1 (stereo not shown) [PQ, primaquine]",,24.8,45.8,46.4
